Where two headings read alike, the source gives them in different places. *1 amine or outer side, *2 acyl side, *3 side chain or, on linkers, in order; H or OH if unused. Where a SMILES comes first, the peptide text is derived from it. [ ]: non-standard residue; d: D form. The star is where a group is joined. X2 = O=C(O)c1cc(NC(=S)*)ccc1-c1c2ccc(=O)cc-2oc2cc(O)ccc12; X1 = O=C([C@H](Cn1cc(P(=O)(O)O)nn1)N[*:1])[*:2]; pY = N[C@@H](Cc1ccc(OP(=O)(O)O)cc1)C(=O)O; phTz = not defined here; GABA = NCCCC(=O)O
Experiments:
[1] = pKa determination by 31P NMR pH titration; format: physicochemical
Procedure: NMR data were collected using a Bruker DPX300 and analysed using MestReNova software. Experiments were carried out 121 MHz using peptide S1 or S2 at a concentration of 10 mM in 10% D2O in H2O (v/v, 2 mL) with an external standard of tris-carboxyethyl phosphine (TCEP) in H2O with a δ value set at 16.30 ppm.5 The pH of the solution was measured and adjusted by addition of 100 mM NaOH in 10% D2O in H2O (v/v) in portions of 5 µL. At higher pH values significant signal-broadening was observed, which precluded accurate determination of chemical shifts and such results were not included in calculations to determine pKa’s. The pKa was determined by fitting the observed chemical shift data to a Boltzmann distribution yielding pKas of ~5.8 for pTyr and 5.95 for the phosphotriazole analogue.
Equation )/(1 + exp((x-x0)
)/(1 + exp((x-x0) Chi-Sqr
Reduced Chi-S 0.00117 Value Standard Error
Figure S10. pH titrations of peptides S1 and S2 containing phosphotyrosine (S1, left) and phosphonotriazole (S2, right) 5Determined by a preliminary experiment using TCEP with an external standard of phosphoric acid (with a shift assigned as 0.00 ppm).
(also on this page, place not known: DPX3 00 software . usin g D 2O H 2O ppm. ad justed H 2O ( v/v) 5 signal-broa dening includ ed 31 P Chemical /ppm 0.01607 0.4 31 P Chemical shift /ppm shift)

[2] = target: T1, full-length Grb2 purified as a glutathione S-transferase (GST) fusion (GST-Grb2) (Homo sapiens, UniProt P62993); assay: ITC of peptides into full-length GST-Grb2; format: binding
T1 construct: made in house; host or cells: E. coli BL21-Gold (DE3)
Text: Protein expression and purification
Isothermal Titration Calorimetry (ITC)

Grb2 SH2 domain [3] = settings: cited from earlier work
Text: We envisaged producing suitable peptides by Fmoc-SPPS and investigating the interaction with proteins known to bind to phosphotyrosine. Our initial test system was the prototypical SH2 phosphotyrosine binding domain from Grb2.[19] […] A)15% SDS-PAGE: Lane 1 - MW markers, 2 & 3 –flow through Ni-NTA column of soluble fraction, 4 & 5 – elution of soluble fraction from Ni-NTA column, 6 – MW markers, 7 – insoluble fraction. B) 15% SDS-PAGE: Lane 1 - MW markers, 2 - insoluble fraction ...

His6-(Grb2-SH2) [4] = target: T2, His6-(Grb2-SH2) (Homo sapiens, UniProt P62993); assay: Competition fluorescence anisotropy/polarisation assay (displacement of 17); format: binding; settings: for competition / displacement of 17: 200 nM 17 and 175 nM Grb2-SH2, serial dilutions of peptide, pH 7.4
T2 construct: His6-(Grb2-SH2), 13132 Da; made in house
Procedure: (§1) Fluorescence polarization experiments
(§2) Peptides were prepared as described above. Fluorescence polarization assays were carried out in 96 well plates (160 µL per well). All experiments were performed in 50 mM Tris.HCl, 100 mM NaCl pH 7.4 (ITC buffer). 2.5-fold or 3-fold dilution series of each peptide were routinely prepared before mixing in the plate well before data acquisition using a Perkin Elmer EnVision™ 2103 MultiLabel plate reader
(§3) Determination of binding of FITC-pY peptide 17 to Grb2-SH2 domain
(§4) Grb2-SH2 was serially diluted through ITC buffer containing 100 nM peptide 17 in triplicate and the fluorescence measured in parallel and perpendicular channels. The instrumental G factor for each experiment was approximated by assuming the anisotropy r = 0 for the free peptide. For each data point the total intensity I and anisotropy r were then determined by application of equations 3 and 4 below. Data were fit using a logistic model to obtain limiting maximum and minimum values […]
(§5) upon binding of the protein and the fraction bound was therefore calculated using equation 5 where λ = Ibound/Ifree. The fraction […]
(§6) IT = Iparallel+ 2GI perpendicular (3) r = Iparallel− GI perpendicular (4)
(§7) F = r − rmin where R = Ibound (5) […]
Competition binding assay […]
fitting using a logistic model to obtain an IC50 value.

[5] = target: T3, monomeric His6-(Grb2-SH2), Grb2 SH2 domain (Homo sapiens, UniProt P62993); assay: ITC of peptides into monomeric His6-(Grb2-SH2) (late-eluting SEC peak 2); format: binding; settings: for ITC outcome, standard conditions: final ratio of ligand to protein 2:1
T3 construct: His6-(Grb2-SH2), 13132 Da; made in house
Text: (3 pictures or pasted objects on this page, not shown here)
(5 pictures or pasted objects on this page, not shown here)

His6-(Grb2-SH2) [6] = target: T2, His6-(Grb2-SH2); assay: Fluorescence anisotropy direct binding of FITC-pY peptide 17; settings: 100 nM peptide 17, Grb2-SH2 serially diluted, triplicate; 50 mM Tris.HCl, 100 mM NaCl pH 7.4; fraction bound corrected for quenching; read-out: binding constant (Kd) by fluorescence anisotropy
Procedure: as §1, §2, §3, §4, §5, §6, §7
Competition binding assay
Grb2-SH2. […]

Grb2 SH2 domain [7] = assay: Literature affinities for Grb2-SH2; format: binding; settings: cited tripeptide Kd compared with own Kd of 11

T3 sequence (P62993 with tags, fused parts or gaps): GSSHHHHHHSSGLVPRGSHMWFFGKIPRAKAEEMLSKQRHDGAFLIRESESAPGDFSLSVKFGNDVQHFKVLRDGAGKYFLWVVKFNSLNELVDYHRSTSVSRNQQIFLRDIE

## C[C@H](NC(=O)CNC(=O)[C@H](C)NC(=O)CNC(=O)[C@H](Cc1ccc(OP(=O)(O)O)cc1)NC(=O)CNC(=O)[C@H](C)NC(=O)CNC(=O)[C@H](C)NC(=O)CNC(=O)[C@@H](N)CS)C(=O)NCC(=O)O [S1, H-Cys-Gly-Ala-Gly-Ala-Gly pTyr-Gly-Ala-Gly-Ala-Gly-OH] (H-CGAGAG[pY]GAGAG-OH)
[1]; 31P NMR 121 MHz, peptide 10 mM in 10% D2O in H2O, titrated with 100 mM NaOH, Boltzmann fit of chemical shift
  pKa: ~ 5.8

## N[C@@H](Cc1ccc(OP(=O)(O)O)cc1)C(=O)O [compound 4, phosphotyrosine]
[1]; NMR titrations (of peptides containing the residue), phosphoryl group
  pKa: 5.8

## CC(=O)N[C@@H](CO)C(=O)N[C@@H](Cc1ccc(OP(=O)(O)O)cc1)C(=O)N[C@H](C(=O)N[C@@H](CC(N)=O)C(=O)N[C@H](C(=O)N[C@@H](CCC(N)=O)C(N)=O)C(C)C)C(C)C [compound 11, AcHN-Ser-pTyr-Val-Asn-Val-Gln-NH2, reference compound] (Ac-S[pY]VNVQ-NH2)
[2]
  Kd: 196 ± 21 nM
Grb2 SH2 domain [3]; literature value for Shc-derived hexapeptide, read-out: Kd for Grb2 SH2 domain
  Kd: 200 nM
His6-(Grb2-SH2) [4]
  IC50: 442 ± 80 nM
  competition / displacement of 17: Binding (displacement of 17) was observed

## CC(=O)N[C@@H](CO)C(=O)N[C@@H](Cn1cc(P(=O)(O)O)nn1)C(=O)N[C@H](C(=O)N[C@@H](CC(N)=O)C(=O)N[C@H](C(=O)N[C@@H](CCC(N)=O)C(N)=O)C(C)C)C(C)C [compound 16, AcHN-Ser-pTz-Val-Asn-Val-Gln-NH2] (Ac-S[X1]VNVQ-NH2)
[5]
  ITC outcome, standard conditions: inconclusive
His6-(Grb2-SH2) [4]
  competition / displacement of 17: Binding (displacement of 17) was observed

## CC(C)[C@H](NC(=O)[C@H](CC(N)=O)NC(=O)[C@@H](NC(=O)[C@H](Cc1ccc(OP(=O)(O)O)cc1)NC(=O)[C@H](CO)NC(=O)CCCNC(=S)Nc1ccc(-c2c3ccc(=O)cc-3oc3cc(O)ccc23)c(C(=O)O)c1)C(C)C)C(=O)N[C@@H](CCC(N)=O)C(N)=O [compound 17, FITC-Gaba-Ser-pTyr-Val-Asn-Val-Gln-NH2] ({X2-GABA}-S[pY]VNVQ-NH2)
His6-(Grb2-SH2) [6]
  Kd: 283 ± 18 nM

## AcHN-Ser-His-Val-Asn-Val-Gln-NH2 [compound 19]
His6-(Grb2-SH2) [4]
  competition / displacement of 17: No competition

## AcHN-Ser-Tyr-Val-Asn-Val-Gln-NH2 [compound 18]
His6-(Grb2-SH2) [4]
  competition / displacement of 17: No competition

## AcHN-Ser-pSer-Val-Asn-Val-Gln-NH2 [compound 20]
His6-(Grb2-SH2) [4]
  competition / displacement of 17: No competition

## AcHN-Ser-pThr-Val-Asn-Val-Gln-NH2 [compound 21]
His6-(Grb2-SH2) [4]
  competition / displacement of 17: No competition

## AcHN-Ser-phTz-Val-Asn-Val-Gln-NH2 ({Ac-Ser-phTz}-VNVQ-NH2; reading uncertain; also: printed as AcHN-Ser-phTz-Val-Asn-Val-Gln-NH2) [compound 15]
[5]; low c-value conditions, final ratio of ligand to protein 8:1, indistinguishable from titration into buffer
  ITC binding outcome, low c-value: no binding
[5]
  ITC outcome, standard conditions: inconclusive
[2]; ITC, peptide titrated into GST-Grb2, 25 °C, ITC buffer pH 7.4
  ITC titration outcome: inconclusive
His6-(Grb2-SH2) [4]
  competition / displacement of 17: No competition

## AcHN-pTyr-Val-Asn-NH2 [literature control tripeptide for Grb2-SH2]
Grb2 SH2 domain [3]; literature control tripeptide, main article, read-out: Kd for monomeric Grb2-SH2
  Kd: 1600 nM
Grb2 SH2 domain [7]
  fold lower affinity for monomeric Grb2-SH2 than hexapeptide 11: ~ 5 fold

## H-Cys-Gly-Ala-Gly-Ala-Gly pTz-Gly-Ala-Gly-Ala-Gly-OH [S2]
[1]
  pKa: 5.95

Source: PMC4159583, “Evaluation of the Interaction between Phosphohistidine Analogues and Phosphotyrosine Binding Domains” (Chembiochem, 2014)
